From ChEMBL document CHEMBL3352766, “Weakly anti-inflammatory limonoids from the seeds of Xylocarpus rumphii” (J Nat Prod, 2014)
pIC50: −log10 of the molar value. The source made the active and inactive calls. The calls are words filed in the database; no cut-off is given here.

What follows are molecules tested on J774.A1 (assay: Antiinflammatory activity in mouse J774.A1 cells assessed as inhibition of LPS-induced NO production treated 2 hrs before LPS challenge measured after 20 hrs).
Format: functional, cell-based
In the case of COc1ccc2c(c1)c(CC(=O)O)c(C)n2C(=O)c1ccc(Cl)cc1 [INDOMETHACIN], the pIC50 was 4.54. For CC[C@H](C)C(=O)O[C@H]1C(C)(C)[C@H](CC(=O)OC)[C@@]2(C)[C@H]3CC[C@]4(C)C(=CC(=O)O[C@H]4c4ccoc4)[C@]34O[C@@]2(O)[C@@]1(O)[C@H]4OC(=O)[C@@H](C)CC, the pIC50 was 4.50. Work on CC[C@H](C)C(=O)O[C@H]1[C@@]23O[C@]4(O)[C@@](C)([C@@H](CC(=O)OC)C(C)(C)[C@H](OC(=O)C(C)C)[C@]14O)[C@H]2CC[C@]1(C)[C@H]3CC(=O)O[C@H]1c1ccoc1 yielded a pIC50 of 4.61.

Each molecule was assayed on J774.A1 (assay: Antiinflammatory activity in mouse J774.A1 cells assessed as inhibition of LPS-induced NO production at 50 uM treated 2 hrs before LPS challenge measured after 20 hrs).
Format: functional, cell-based
With COC(=O)C[C@H]1C(C)(C)[C@H](OC(=O)C(C)C)[C@@H]2[C@@H](OC(=O)C(C)C)[C@@]34O[C@]2(O)[C@]1(C)[C@H]3CC[C@]1(C)[C@H]4CC(=O)O[C@H]1c1ccoc1 the inhibition was “inactive”. For CC[C@H](C)C(=O)O[C@H]1C(C)(C)[C@H](CC(=O)OC)[C@@]2(C)[C@H]3CC[C@]4(C)[C@@H](CC(=O)O[C@H]4c4ccoc4)[C@]34O[C@@]2(O)[C@@]1(O)[C@H]4OC(=O)[C@@H](C)CC, the inhibition was “inactive”. COC(=O)C[C@H]1C(C)(C)[C@H](OC(C)=O)[C@]2(O)[C@@H](OC(=O)C(C)C)[C@@]34O[C@]2(O)[C@]1(C)[C@H]3CC[C@]1(C)[C@H]4CC(=O)O[C@H]1c1ccoc1 was tested, and the inhibition was “inactive”. For COC(=O)C[C@H]1[C@]2(C)C[C@@]34OC5(C)O[C@]6([C@@H]7[C@H](O)C(=O)O[C@@H](c8ccoc8)[C@]7(C)CC[C@]6(O5)[C@]13C)[C@H](OC(C)=O)[C@@]4(OC(C)=O)[C@H]2OC(C)=O, the inhibition was “inactive”. For CC[C@H](C)C(=O)O[C@@H]1[C@H]2[C@@H](OC(=O)C(C)C)C(C)(C)[C@H](CC(=O)OC)[C@@]3(C)[C@H]4CC[C@]5(C)[C@@H](CC(=O)O[C@H]5c5ccoc5)[C@@]14O[C@@]23O, the inhibition was “inactive”. CC[C@H](C)C(=O)O[C@H]1C(C)(C)[C@H](CC(=O)OC)[C@@]2(C)[C@H]3CC[C@]4(C)C(=CC(=O)O[C@H]4c4ccoc4)[C@]34O[C@@]2(O)[C@@]1(O)[C@H]4OC(=O)C(C)C was tested, and the inhibition was “inactive”.
